Test: In vivo pharmacokinetics of oral formulations in healthy human subjects
Method: The three dose levels included 25 mg (representative formulation listed in Table 1.2), 200 mg (representative formulation listed in Table 1.3) and 400 mg of the drug compound.

In the case of `Cc1ccc(C2O[C@H](CO)[C@@H](O)[C@H](O)[C@H]2O)cc1Cc1ccc(-c2ccc(F)cc2)s1` (stereo partly drawn) [compound of Formula (I-S)], the “mean AUCinf values across formulations and food conditions” value (all doses (25 mg, 200 mg and 400 mg), fed or fasting) is reported as “comparable”, the “effect of food on the extent of bioavailability” value (human subjects, fed versus fasted) is reported as “no significant effect” and the half-life (human, plasma, oral, all treatment regimens regardless of formulation and food intake, read-out: mean t1/2) is reported as 8 to 12 h.

Reference: US10617668B2, “Pharmaceutical formulations” (Janssen Pharmaceutica NV, priority 2010, dated 2020)
